Experimental data reported in ChEMBL document CHEMBL5728326, “Aminopyridine derivatives and their use as selective ALK-2 inhibitors” (2021).

Legend:
[1] = target: Bone morphogenetic protein receptor type-1B (Homo sapiens, UniProt O00238)
[2] = target: Activin receptor type-1-like (Homo sapiens, UniProt P37023)
Chain of Activin receptor type-1-like (P37023 22-503 limits assumed, change not shown): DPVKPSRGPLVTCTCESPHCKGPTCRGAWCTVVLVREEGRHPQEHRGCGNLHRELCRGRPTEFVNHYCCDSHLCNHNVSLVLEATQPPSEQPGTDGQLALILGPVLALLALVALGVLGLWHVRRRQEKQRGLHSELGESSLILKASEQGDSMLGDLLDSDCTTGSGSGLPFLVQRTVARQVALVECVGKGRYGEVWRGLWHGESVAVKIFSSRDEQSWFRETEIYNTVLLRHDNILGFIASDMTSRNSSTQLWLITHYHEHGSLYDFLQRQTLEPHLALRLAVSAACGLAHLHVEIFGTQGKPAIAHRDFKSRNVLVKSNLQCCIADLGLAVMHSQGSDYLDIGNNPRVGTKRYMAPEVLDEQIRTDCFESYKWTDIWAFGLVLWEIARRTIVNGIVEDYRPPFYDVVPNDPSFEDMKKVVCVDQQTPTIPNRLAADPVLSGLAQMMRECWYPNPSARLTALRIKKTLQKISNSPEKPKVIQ

Chain of Bone morphogenetic protein receptor type-1B (O00238 14-502 limits assumed, change not shown): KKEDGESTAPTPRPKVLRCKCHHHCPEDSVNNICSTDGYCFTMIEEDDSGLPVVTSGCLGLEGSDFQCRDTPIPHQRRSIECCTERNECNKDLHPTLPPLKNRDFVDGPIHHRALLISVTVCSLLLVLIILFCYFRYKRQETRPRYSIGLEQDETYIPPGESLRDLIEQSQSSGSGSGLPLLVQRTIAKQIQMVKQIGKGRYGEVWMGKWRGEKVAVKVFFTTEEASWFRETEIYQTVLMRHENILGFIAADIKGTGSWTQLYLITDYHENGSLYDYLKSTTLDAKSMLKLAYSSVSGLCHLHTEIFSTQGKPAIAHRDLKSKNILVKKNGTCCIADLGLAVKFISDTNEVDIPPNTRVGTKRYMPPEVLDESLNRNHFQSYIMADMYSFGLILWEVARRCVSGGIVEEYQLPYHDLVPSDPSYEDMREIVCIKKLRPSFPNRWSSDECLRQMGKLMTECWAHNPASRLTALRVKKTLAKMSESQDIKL

NC(=O)c1ccc(-c2cnc(N)c(C(=O)N[C@H]3CC[C@@H](O)CC3)c2)cc1
IC50 [1]: 10 µM
IC50 [2]: 0.89 µM
